We go through one compound from article PMC8538783, “Green Oxidation of Amines by a Novel Cold-Adapted Monoamine Oxidase MAO P3 from Psychrophilic Fungi Pseudogymnoascus sp. P3” (Molecules, 2021).

The test system of assay [1] is MAO P3. In words: Initial oxidation screening: bioconversion of amine substrates by cell-free extract, GC-MS. Particulars: 10 mM substrate, 10 mM potassium phosphate buffer pH 7.2, cell-free intracellular extract of P3 strain, 4 h at 30 °C; relative to compound 9 = 100%. The class given is biochemical, Pseudogymnoascus sp. P3. As to the method:
(§1) Substrate specificity of MAO P3 was examined towards sixteen amine substrates (listed in Table 3) that differed in the number of carbons and various substitutions. Bioconversion was carried out in 5 mL glass tubes (Schott, Germany), where the total volume of the reaction was 2.5 mL and was comprised of 1 mL of MAO P3 (1 U/mL), where the cell-free extracts were used for the initial oxidation screening and the purified enzyme, for substrate specificity. An amount of 0.75 mL of a substrate (in the range of concentrations between 10 and 100 mM) was resuspended in 0.1 M potassium phosphate pH 7.2, and 0.75 mL of 10 mM potassium phosphate buffer pH 7.2. Initial oxidation screening was carried out for 4 h at 30 °C, 810 rpm. The substrate specificity was measured at 30 °C; reactions were carried out for 5 h, 810 rpm. In order to analyze the products of the bioconversion, samples were first neutralized by the addition of 0.25 mL of 1 M NaOH. An amount of 0.5 mL of dichloromethane was added to samples and incubated at room temperature with shaking for 1 min. The samples were centrifuged for 5 min, 5000 rpm, 4 °C. The organic phase was collected for the gas chromatography-mass spectrometry (GC-MS) analysis. The Km values were calculated based on […] curves (see the Supplementary Materials).
Samples were injected with the GerstelMultiPurpose sampler (MPS 2). […] Helium was used as a carrier gas with a flow rate of 1.5 mL/min. The injector temperature was held at 250 °C. The oven temperature was initially held at 40 °C for 2 min, ramped up to 200 °C by 10 °C/min; the total run time was 20 min. The detector was operated in EI mode with the transfer line maintained at 280 °C. All substrates were purchased from MerckMillipore, USA, and quantified by GC analysis based on their peak areas and calibration curves prepared for each individual. GC-MS spectra are presented in the Supplementary Materials.

The subject of assay [2] is MAO P3. As to the kind of experiment: Substrate specificity (Vmax, Km) of purified MAO P3, GC-MS. The class given is biochemical, Pseudogymnoascus sp. P3. Particulars: purified MAO P3 1 U/mL, 0.1 M potassium phosphate buffer pH 7.2, 30 °C. As to the method:
as §1
GC-MS analyses were carried out on a Pegasus 4D (LECO, USA) apparatus, equipped with an Agilent 6890N gas chromatograph coupled with a time-of-flight mass spectrometer (LECO, Saint Joseph, MI, USA). Samples were injected with the GerstelMultiPurpose sampler (MPS 2). The GC was fitted with a BPX5 capillary column of 30 m × 0.25 mm × 0.25 µm (SGE). Helium was used as a carrier gas with a flow rate of 1.5 mL/min. The injector temperature was held at 250 °C. The oven temperature was initially held at 40 °C for 2 min, ramped up to 200 °C by 10 °C/min; the total run time was 20 min. The detector was operated in EI mode with the transfer line maintained at 280 °C. All substrates were purchased from MerckMillipore, USA, and quantified by GC analysis based on their peak areas and calibration curves prepared for each individual. GC-MS spectra are presented in the Supplementary Materials.
Method S3. Determination of Km and Vmax values based on Lineweaver-Burk curves
The double-reciprocal curve was create based on the inverse initial velocity as a function of the inverse substrate
concentration. Curves were created for each amine substrate (Fig. S2), based on the results of GC-MS analysis (Paragraph
Figure S4. The double-reciprocal curves for MAO P3 amines substrates: A. 3-azabicyclo[3.3.0]octane;
B. hexamethyleneimine; C. 6,6-dimethyl-3-azabicyclohexane; D. cyclopentylamine; E. α-methylbenzylamine;
F. pyrrolidine; G. sec-butylamine; H. indoline.
(1 picture or pasted object on this page, not shown here)

Assay [3] relates to native MAO N. Particulars: cited from earlier work.
Assay [4] deals with MAO N (N338S, M348K). Further details: method as in PMID 12207381. Particulars: MAO N with two point mutations (N338S, M348K); cited from earlier work.

Values joined by “and” are separate entries in the source; they are usually repeats but may differ in a detail not shown here. Identical values can stand only once.

The Km is the concentration of substrate that gives half-maximal velocity. In general, Vmax refers to the top rate of the reaction or transport when substrate is in excess. A word on the kcat: it is the number of substrate molecules converted per active site and unit of time at saturation. Regarding `CC(N)c1ccccc1` (stereo not drawn) [Substrate 5, α-methylbenzylamine], in assay [1], the “Rate of Oxidation” value was found to be 41%. In assay [2], the Michaelis-Menten constant (Km) was 4.1 mM and 4.13 mM; the Vmax was 0.27 mM/h. Further, the turnover number (kcat) in assay [3] is 0.00283 s⁻¹. In addition, the Michaelis constant (Km) in assay [4] is 0.4 mM.
